Data on two compounds can be found in patent US20250340593A1, “METHOD AND COMPOSITION FOR TREATING NEURODEGENERATIVE DISORDER” (priority 2022, published 2025).

One test addresses T1, AB40 monomers (Aβm) (Homo sapiens, UniProt P05067).
T1 construct: synthetic biotinylated Aβ42 oligomers (Aβo) or AB40 monomers (Aβm); purchased Bachem; host or cells: chemical synthesis
The test is described as follows: Indirect ELISA, binding of coated peptide to biotinylated Aβ40 monomers. The protocol: The binding of the CP or BP to synthetic biotinylated Aβ42 oligomers (Aβo) or AB40 monomers (Aβm) was determined by indirect ELISA in which the CP or BP were used as the capture antigens and the biotin tag of the biotinylated Aβ peptides for the detection. 96-well clear polystyrene microplate (BioTechne DY990) were coated overnight at 4° C. with 5 μM of the CP or BP in PBS, pH 7.4. After immobilization, the plate was washed three times with PBS 0.05% Tween 20 and various concentrations of biotinylated Aβ peptides were added in triplicate from 0.1 μg.mL-1 to 10 μg.mL-1 (21 nM to 2.1 μM for Aβo (42), 22 nM to 2.2 μM for Aβm (40) and incubated for 2 h at RT. After additional washes with PBS 0.05% Tween 20, HRP-conjugated streptavidin (1/40) was added for 20 min at RT, followed by a washing step and an incubation in substrate solution containing 3,3′,5,5′-Tetramethylbenzidine (TMB) and H2O2. The reaction was stopped by H2SO4. Absorbance was successively measured at 450 and 540 nm with a TECAN microplate reader and optical density values at 540 nm were subtracted from the ones at 450 nm to correct for optical imperfections of the plate. Unspecific Aβ binding to the microplate was determined using non-coated wells.
(In general: ELISA stands for enzyme-linked immunosorbent assay.)

The target in test [1] is T2, soluble Aβ species (monomers, LMW and HMW Aβo) (Homo sapiens, UniProt P05067).
T2 construct: purchased Bachem; host or cells: chemical synthesis
Kind of test: Western blotting of soluble Aβ species (6E10 antibody). The class given is biochemical. The protocol:
Aβ preparations (1 μg) were subjected to immunoblotting analysis and separated on 4-12% gradient SDS-PAGE gels, prior to being transferred on nitrocellulose membranes. After a 45 minutes blocking step in Tris-buffered saline, 0.1% Tween, pH 7.6, 5% milk, membranes were immunoblotted overnight at 4° C. with the 6E10 anti-Ab antibody diluted in Tris-buffered saline, 0.1% Tween, pH 7.6, with 2% milk. Horseradish peroxidase (HRP)-conjugated secondary anti-mouse antibody was next applied for 1 h30 at room temperature. Proteins were visualized with an ECL detection system and band intensities quantified using a densitometric analysis with Image J software.

Setting [2] is: Aβ aggregated with peptide for 24 hours, compared to the two other conditions.

Residues, ends and D or L forms follow the SMILES beside them.

T2 sequence (P05067 672-713 limits assumed): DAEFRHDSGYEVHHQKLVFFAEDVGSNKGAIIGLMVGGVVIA
T1 sequence (P05067 672-711 limits assumed): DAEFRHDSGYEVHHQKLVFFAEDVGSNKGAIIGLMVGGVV

For NDYKDDDDKGAAA [CP, reference compound], in the test with AB40 monomers (Aβm) (ELISA, peptide coated at 5 μM), the “binding to Aβm” value is given as “fails to bind”.

What is called Kd is the equilibrium constant for the complex coming apart. Read a high Kd as weaker binding. For the compound `CC(C)[C@H](NC(=O)[C@H](Cc1ccc(O)cc1)NC(=O)[C@@H](NC(=O)[C@H](CO)NC(=O)[C@H](Cc1c[nH]c2ccccc12)NC(=O)[C@H](CO)NC(=O)[C@H](CCCCN)NC(=O)[C@H](Cc1ccc(O)cc1)NC(=O)[C@H](CCCNC(=N)N)NC(=O)[C@H](CO)NC(=O)[C@H](CCCCN)NC(=O)[C@H](CCCCN)NC(=O)[C@H](CCCNC(=N)N)NC(=O)[C@@H](N)CCCCN)C(C)C)C(=O)NCC(=O)O` [BP, KRKKSRYKSWSVYVG] (H-KRKKSRYKSWSVYVG-OH; N-terminus and C-terminus assumed), in test [1] (Aβ aggregated with peptide for 2 hours, compared to Aβ alone and Aβ and CP), the “fraction of LMW Aβo” value is recorded as “significantly increased”. Moreover, in test [1] (Aβ aggregated with peptide for 2 hours, compared to the Aβ alone condition), the “amount of HMW Aβo” value is “significant decrease”. In test [1] (setting [2]), the “LMW Aβo and Aβ monomers” value is listed as “increase”; the “fraction of HMW Aβo” value is listed as “significant decrease”. At AB40 monomers (Aβm), this compound registered a Kd of 19 µM.
